The text below walks through data of US20240009651A1, “PRE-COATINGS FOR BIOCOMPATIBLE SOLID PHASE MICROEXTRACTION DEVICES” (SIGMA-ALDRICH CO. LLC, priority 2020, published 2024).

A value given as a limit tells only on which side of the number the result lay.

The nature of one data set: in vitro. The following applies: human. The protocol:
(§1) Protein Binding by BioSPME was studied. A 96-pin device was prepared with an […] pre-coating and PAN/C18 BioSPME coating. Human plasma and buffer were spiked at a therapeutically relevant concentration and incubated for one hour at 37° C. while shaking at 300 rpm. After the incubation, 200 μL plasma and buffer were loaded into separate columns on to the extraction well plate (n=8). The determination of the protein binding was determined by automated robotic method using the BioSPME C18 96-pin tool. Briefly, the pin tool is conditioned for twenty minutes static in isopropanol, then it is transferred into a new well plate for 10 seconds in water (wash step). This is followed by the extraction step. The pin tool is transferred into the preloaded extraction plate described earlier. Here, the pin tool extracts the analytes while shaking at 1200-1250 rpm at 37° C. for 15 minutes. The pin tools return to the water solution for a 60 seconds wash and finally transferred into a desorption plate. The desorption solution is a 80:20 methanol:water and desorbs for 20 minutes under static conditions. Samples were analyzed using methods described in Tables 5 and 6.
(§2) The extraction plates used in this study included both plastic and glass-coated plates. The choice of the plate depended on the compound properties and how well the compound behaved in buffer solution.
(§3) Determination of % Free Fraction (Fu) by BioSPME
(§4) BioSPME method determines the free concentration of analyte in plasma by comparing it with the extraction of the analyte from buffer samples where 100% of the analyte is considered to be free of protein biding.
(§5) The percent free or percent unbound is determined in Eq. 1:
(§6) where concentration free represents the unbound concentration of the analyte in the matrix in this case plasma, and concentration total represents the total concentration of analyte. The amount extracted is independent of units and can be applied using preferred quantities (e.g. nanograms or moles) Mfree, and extraction volume of plasma, Vplasma. The concentration of analyte in the desorption solution is quantified by an external calibration curve, and if the desorption volume is equal to the plasma and buffer extraction volumes, the concentration from desorption will be equal to the extracted concentration as shown in Eq 2.
(§7) The bound fraction, FB, can be determined from the extracted concentrations as shown in Eq 6.
(§8) In cases where depletion of compounds from plasma was pronounced upon BioSPME extraction (extraction exceeded 5% of total spiked analyte), a correction to the calculated Bound Fraction was required as described below:
(§9) where B and P, represent the respective amounts extracted from buffer, B, and plasma, P. B^0 represents the concentration the samples were spiked originally.

The next data set relates to Human plasma. Briefly: in vitro. The protocol: as §1, §2, §3, §4, §5, §6, §7, §8, §9
For data set [1] the following is noted: cited from earlier work; for Physiological Charge: physiological pH.
The nature of data set [2]: Non-specific binding to plastic extraction plates. The format is in vitro ADME. The conditions noted are these: plastic versus glass-coated 96-well extraction plates, buffer solution.
Text: as §2

Setting [3] is: human plasma, spiked 100 ng/mL, 200 μL sample, 37° C., n = 8.

Regarding `CC(=O)CC(c1ccccc1)c1c(O)c2ccccc2oc1=O` (centres unmarked) [Warfarin], the unbound share (fraction unbound) (usually the share of the substance not bound to proteins or other matrix) at 1 h, 2500 ng/mL in the data set “in vitro” (plasma) was 0.002. Moreover, the “Ave. Buffer Extracted” value with Human plasma (15 min, 2500 ng/mL) is recorded as 10.0 ng/mL. Also, in the data set on Human plasma (human, 15 min, 2500 ng/mL), the “Ave. Plasma Extracted” value is on record as <0.1 ng/mL. In addition, in the data set on Human plasma (human, 1 h, 2500 ng/mL), the “Ave. FB(%) (bound fraction)” value came to 99.8%.
In the data set “in vitro” (plasma), `CCn1cc(C(=O)O)c(=O)c2ccc(C)nc21` [Nalidixic Acid] yielded a fraction unbound at 1 h, 2000 ng/mL of 0.03. In addition, the “Ave. Buffer Extracted” value in the data set on Human plasma (15 min, 2000 ng/mL) is 16.35 ng/mL. Moreover, the “Ave. Plasma Extracted” value with Human plasma (human, 15 min, 2000 ng/mL) came to 0.5 ng/mL. The “Ave. FB(%) (bound fraction)” value in the data set on Human plasma (human, 1 h, 2000 ng/mL) is given as 97.0%. Also, the Log P (commonly the decadic logarithm of the partition coefficient of the neutral form, usually between octanol and water) in data set [1] is given as 1.59.
On to `CN(C)CCCN1c2ccccc2CCc2ccccc21` [Imipramine], for which, in data set [2], the “non-specific binding to plastic” value is given as “exhibit non-specific biding to plastic”. This compound also registered a fraction unbound at 1 h, 100 ng/mL in “in vitro” (human plasma) of 0.074. Further, the “Ave. Buffer Extracted” value in the data set with Human plasma (15 min, 100 ng/mL) is 65.4 ng/mL. In addition, the “Ave. FB(%) (bound fraction)” value with Human plasma (setting [3]) was found to be 92.6%. In the data set on Human plasma (human, 15 min, 100 ng/mL), the “Ave. Plasma Extracted” value turned out to be 12.2 ng/mL. Moreover, the “Physiological Charge” value in data set [1] is recorded as 1.
On to `O=C1CC2(CCCC2)CC(=O)N1CCCCN1CCN(c2ncccn2)CC1` [Buspirone], for which the pKa (as a rule, the negative logarithm of the acid dissociation constant) in data set [1] was 4.12.
As to `CC[C@H]1OC(=O)[C@H](C)[C@@H](O[C@H]2C[C@@](C)(OC)[C@@H](O)[C@H](C)O2)[C@H](C)[C@@H](O[C@@H]2O[C@H](C)C[C@H](N(C)C)[C@H]2O)[C@](C)(O)C[C@@H](C)C(=O)[C@H](C)[C@@H](O)[C@]1(C)O` [Erythromycin], in the data set “in vitro” (plasma), the free fraction (fraction unbound) at 1 h, 100 ng/mL is 0.182. In addition, the “Ave. Buffer Extracted” value in the data set with Human plasma (15 min, 100 ng/mL) worked out at 35.0 ng/mL. Also, the “Ave. Plasma Extracted” value in the data set with Human plasma (human, 15 min, 100 ng/mL) turned out to be 6.5 ng/mL. The “Ave. FB(%) (bound fraction)” value in the data set on Human plasma (human, 1 h, 100 ng/mL) is recorded as 81.8%.
On to `CC(C)NCC(O)COc1cccc2ccccc12` (centres unmarked) [Propranolol], for which, in the data set “in vitro” (plasma), the fraction unbound at 1 h, 100 ng/mL was 0.095. For the same compound, the “Ave. Buffer Extracted” value with Human plasma (15 min, 100 ng/mL) was 18.3 ng/mL. In addition, the “Ave. Plasma Extracted” value in the data set on Human plasma (human, 15 min, 100 ng/mL) is reported as 1.7 ng/mL. Besides, the “Ave. FB(%) (bound fraction)” value with Human plasma (human, 1 h, 100 ng/mL) turned out to be 90.5%. In data set [1], the “Physiological Charge” value is 1.
`NC(=O)N1c2ccccc2C=Cc2ccccc21` [Carbamazepine] had a fraction unbound at 1 h, 100 ng/mL in the data set “in vitro” (plasma) of 0.236. The “Ave. Buffer Extracted” value with Human plasma (15 min, 100 ng/mL) turned out to be 34.7 ng/mL. Further, the “Ave. Plasma Extracted” value with Human plasma (human, 15 min, 100 ng/mL) turned out to be 8.2 ng/mL. Further, the “Ave. FB(%) (bound fraction)” value in the data set with Human plasma (human, 1 h, 100 ng/mL) turned out to be 76.4%. Moreover, the “Physiological Charge” value in data set [1] is on record as 0.
Regarding `CC(=O)N1CCN(c2ccc(OCC3COC(Cn4ccnc4)(c4ccc(Cl)cc4Cl)O3)cc2)CC1` (centres unmarked) [Ketoconazole], the “non-specific binding to plastic” value in data set [2] was “exhibit non-specific biding to plastic”. Moreover, in the data set “in vitro” (human plasma), the fraction unbound at 1 h, 500 ng/mL amounted to 0.032. Further, in the data set on Human plasma (15 min, 500 ng/mL), the “Ave. Buffer Extracted” value is 282.4 ng/mL. The “Ave. FB(%) (bound fraction)” value in the data set on Human plasma (human plasma, spiked 500 ng/mL, 200 μL sample, 37° C., n = 8) worked out at 96.8%. In the data set on Human plasma (human, 15 min, 500 ng/mL), the “Ave. Plasma Extracted” value is given as 20.0 ng/mL. In addition, in data set [1], the pKa was 6.75 and the “Physiological Charge” value is reported as 0.
In the case of `Cc1ccc(-c2nc3ccc(C)cn3c2CC(=O)N(C)C)cc1` [Zolpidem], the fraction unbound at 1 h, 100 ng/mL in the data set “in vitro” (plasma) was determined as 0.031. For the same compound, in the data set with Human plasma (buffer, spiked 100 ng/mL, 200 μL sample, n = 8), the “Ave. Buffer Extracted” value was 68.4 ng/mL. Also, in the data set with Human plasma (setting [3]), the “Ave. FB(%) (bound fraction)” value came out at 96.9%. Also, the “Ave. Plasma Extracted” value with Human plasma (human plasma, spiked 100 ng/mL, 200 μL sample, n = 8) came out at 2.1 ng/mL. For the same compound, the “Physiological Charge” value in data set [1] is 0.
Compound `C[C@]12C=CC(=O)C=C1CC[C@@H]1[C@@H]2[C@@H](O)C[C@@]2(C)[C@H]1CC[C@]2(O)C(=O)CO` [prednisolone] showed a fraction unbound at 1 h, 100 ng/mL in “in vitro” (plasma) of 0.218. In addition, in the data set on Human plasma (15 min, 100 ng/mL), the “Ave. Buffer Extracted” value is recorded as 62.1 ng/mL. For the same compound, the “Ave. Plasma Extracted” value with Human plasma (human, 15 min, 100 ng/mL) is 13.5 ng/mL. Moreover, the “Ave. FB(%) (bound fraction)” value with Human plasma (human, 1 h, 100 ng/mL) was found to be 78.2%. In data set [1], the “Physiological Charge” value is 0.
